Assay results reported in patent publication US20230085307A1, “PYRIDAZINONE COMPOUND AND HERBICIDE” (NISSAN CHEMICAL CORPORATION, priority 2019, published 2023).

Each molecule was assayed on late watergrass (assay: Test Example 1: herbicidal activity, application before weed generation under submerged conditions (Table 16, symbol A)). Conditions: amount of applied herbicide 320 g/ha.
Assay type: in vivo, late watergrass (Echinochloa oryzicola)
How it was run: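 Emulsion formulation, water-diluted to set dose, was put onto the flooded surface (4 cm depth, alluvial soil) the same day weeds were sown and 2.5-leaf rice transplanted. After 3 weeks at 25-30 °C under glass, each species was rated 0 (≤5% kill) to 5 (≥90% kill).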

Row | SMILES | Herbicidal effect, A: late watergrass
1 | CCCC(=O)Oc1c(C)nn(C)c(=O)c1-c1c(-c2ccccc2OCC)sc2cc(C)c(C)cc12 [5-095] | 5 (Herbicidal rate of 90% or more (almost completely withered))
2 | CCOc1cc(F)ccc1-c1sc2cc(C)c(C)cc2c1-c1c(O)c(C)nn(C)c1=O [5-103] | 5 (Herbicidal rate of 90% or more (almost completely withered))
3 | CCOc1ccc2c(-c3c(O)c(C)nn(C)c3=O)c(-c3ccccc3OC)sc2c1Cl [7-003] | 2 (Herbicidal rate of 20% or more and less than 40%)

These molecules were tested on late watergrass (assay: Test Example 2: herbicidal activity, application during weed generation under submerged conditions (Table 17, symbol A)). Conditions: AAH 320 g/ha; application during weed generation, submerged conditions.
Assay type: in vivo, late watergrass (Echinochloa oryzicola)
How it was run: (§1)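 Steps: fill Wagner pots with alluvial soil; add water to give 4 cm depth; sow the species mixed; grow under glass at 25–30° C.; at 1–2 leaves apply water-diluted emulsion formulation to the water surface at a fixed herbicide amount; score after 3 weeks.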

Row | SMILES | herbicidal effect rating, A: late watergrass
4 | CCCC(=O)Oc1c(C)nn(C)c(=O)c1-c1c(-c2ccccc2OCC)sc2cc(C)c(C)cc12 [5-095] | 4 (Herbicidal rate of 70% or more and less than 90%)
5 | CCOc1cc(F)ccc1-c1sc2cc(C)c(C)cc2c1-c1c(O)c(C)nn(C)c1=O [5-103] | 2 (Herbicidal rate of 20% or more and less than 40%)
6 | CCOc1ccc2c(-c3c(O)c(C)nn(C)c3=O)c(-c3ccccc3OC)sc2c1Cl [7-003] | 0 (Herbicidal rate of 5% or less (almost no effect))

These molecules were tested on oval-leafed pondweed (assay: Test Example 2: herbicidal activity, application during weed generation under submerged conditions (Table 17, symbol C)). Conditions: AAH 320 g/ha; application during weed generation, submerged conditions.
Assay type: in vivo, oval-leafed pondweed (Monochoria vaginalis)
How it was run: as §1

Row | SMILES | herbicidal effect rating, C: oval-leafed pondweed
7 | CCCC(=O)Oc1c(C)nn(C)c(=O)c1-c1c(-c2ccccc2OCC)sc2cc(C)c(C)cc12 [5-095] | 4 (Herbicidal rate of 70% or more and less than 90%)
8 | CCOc1cc(F)ccc1-c1sc2cc(C)c(C)cc2c1-c1c(O)c(C)nn(C)c1=O [5-103] | 3 (Herbicidal rate of 40% or more and less than 70%)
9 | CCOc1ccc2c(-c3c(O)c(C)nn(C)c3=O)c(-c3ccccc3OC)sc2c1Cl [7-003] | 0 (Herbicidal rate of 5% or less (almost no effect))

Each molecule was assayed on barnyard grass (assay: Test Example 3: herbicidal effect by foliage application, Wagner pot (Table 18, symbol H)). Conditions: 320 g/ha.
Assay type: in vivo, barnyard grass (Echinochloa crus-galli)
How it was run: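 Plants were sown in alluvial soil held under 0.1–0.5 cm standing water and grown 14 days in a greenhouse at 25–30 °C. An emulsifiable formulation, water-diluted to the set dose, was then sprayed onto the foliage, and effects were scored three weeks later using previously defined criteria.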

Row | SMILES | herbicidal effect on barnyard grass (H)
10 | CCCC(=O)Oc1c(C)nn(C)c(=O)c1-c1c(-c2ccccc2OCC)sc2cc(C)c(C)cc12 [5-095] | 5 (Herbicidal rate of 90% or more (almost completely withered))
11 | CCOc1cc(F)ccc1-c1sc2cc(C)c(C)cc2c1-c1c(O)c(C)nn(C)c1=O [5-103] | 5 (Herbicidal rate of 90% or more (almost completely withered))

Same assay, conditions: amount of applied herbicide 320 g/ha

Row | SMILES | Herbicidal effect on H (barnyard grass), foliage application
12 | CCOc1ccc2c(-c3c(O)c(C)nn(C)c3=O)c(-c3ccccc3OC)sc2c1Cl [7-003] | 4 (Herbicidal rate of 70% or more and less than 90%)

Each molecule was assayed on southern crabgrass (assay: Test Example 4: herbicidal effect by soil treatment (Table 19, symbol F)). Conditions: amount of applied herbicide 320 g/ha.
Assay type: in vivo, southern crabgrass (Digitaria ciliaris)
How it was run: (§2)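 Emulsion of test compound, water-diluted to predetermined amount, sprayed on soil after sowing (seed depth ~1.5 cm, sterilized diluvial soil). Greenhouse, 25–30° C. Effect graded at three weeks post-spray.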

Row | SMILES | F: southern crabgrass, herbicidal effect grade
13 | CCCC(=O)Oc1c(C)nn(C)c(=O)c1-c1c(-c2ccccc2OCC)sc2cc(C)c(C)cc12 [5-095] | 0 (Herbicidal rate of 5% or less (almost no effect))
14 | CCOc1cc(F)ccc1-c1sc2cc(C)c(C)cc2c1-c1c(O)c(C)nn(C)c1=O [5-103] | 4 (Herbicidal rate of 70% or more and less than 90%)
15 | CCOc1ccc2c(-c3c(O)c(C)nn(C)c3=O)c(-c3ccccc3OC)sc2c1Cl [7-003] | 0 (Herbicidal rate of 5% or less (almost no effect))

These molecules were tested on barnyard grass (assay: Test Example 4: herbicidal effect by soil treatment (Table 19, symbol H)). Conditions: amount of applied herbicide 320 g/ha.
Assay type: in vivo, barnyard grass (Echinochloa crus-galli)
How it was run: as §2

Row | SMILES | H: barnyard grass, herbicidal effect grade
16 | CCCC(=O)Oc1c(C)nn(C)c(=O)c1-c1c(-c2ccccc2OCC)sc2cc(C)c(C)cc12 [5-095] | 0 (Herbicidal rate of 5% or less (almost no effect))
17 | CCOc1cc(F)ccc1-c1sc2cc(C)c(C)cc2c1-c1c(O)c(C)nn(C)c1=O [5-103] | 1 (Herbicidal rate of 5% or more and less than 20%)
18 | CCOc1ccc2c(-c3c(O)c(C)nn(C)c3=O)c(-c3ccccc3OC)sc2c1Cl [7-003] | 0 (Herbicidal rate of 5% or less (almost no effect))

These molecules were tested on blackgrass (assay: Test Example 4: herbicidal effect by soil treatment (Table 19, symbol J)). Conditions: amount of applied herbicide 320 g/ha.
Assay type: in vivo, blackgrass (Alopecurus myosuroides)
How it was run: as §2

Row | SMILES | J: blackgrass, herbicidal effect grade
19 | CCCC(=O)Oc1c(C)nn(C)c(=O)c1-c1c(-c2ccccc2OCC)sc2cc(C)c(C)cc12 [5-095] | 0 (Herbicidal rate of 5% or less (almost no effect))
20 | CCOc1cc(F)ccc1-c1sc2cc(C)c(C)cc2c1-c1c(O)c(C)nn(C)c1=O [5-103] | 0 (Herbicidal rate of 5% or less (almost no effect))
21 | CCOc1ccc2c(-c3c(O)c(C)nn(C)c3=O)c(-c3ccccc3OC)sc2c1Cl [7-003] | 0 (Herbicidal rate of 5% or less (almost no effect))

The molecules below were run on velvetleaf (assay: Test Example 4: herbicidal effect by soil treatment (Table 19, symbol M)). Conditions: amount of applied herbicide 320 g/ha.
Assay type: in vivo, velvetleaf (Abutilon theophrasti)
How it was run: as §2

Row | SMILES | M: velvetleaf, herbicidal effect grade
22 | CCCC(=O)Oc1c(C)nn(C)c(=O)c1-c1c(-c2ccccc2OCC)sc2cc(C)c(C)cc12 [5-095] | 0 (Herbicidal rate of 5% or less (almost no effect))
23 | CCOc1cc(F)ccc1-c1sc2cc(C)c(C)cc2c1-c1c(O)c(C)nn(C)c1=O [5-103] | 1 (Herbicidal rate of 5% or more and less than 20%)
24 | CCOc1ccc2c(-c3c(O)c(C)nn(C)c3=O)c(-c3ccccc3OC)sc2c1Cl [7-003] | 3 (Herbicidal rate of 40% or more and less than 70%)

What follows are molecules tested on lambsquarters (assay: Test Example 4: herbicidal effect by soil treatment (Table 19, symbol O)). Conditions: amount of applied herbicide 320 g/ha.
Assay type: in vivo, lambsquarters (Chenopodium album)
How it was run: as §2

Row | SMILES | O: lambsquarters, herbicidal effect grade
25 | CCCC(=O)Oc1c(C)nn(C)c(=O)c1-c1c(-c2ccccc2OCC)sc2cc(C)c(C)cc12 [5-095] | 0 (Herbicidal rate of 5% or less (almost no effect))
26 | CCOc1cc(F)ccc1-c1sc2cc(C)c(C)cc2c1-c1c(O)c(C)nn(C)c1=O [5-103] | 2 (Herbicidal rate of 20% or more and less than 40%)
27 | CCOc1ccc2c(-c3c(O)c(C)nn(C)c3=O)c(-c3ccccc3OC)sc2c1Cl [7-003] | 4 (Herbicidal rate of 70% or more and less than 90%)

Each molecule was assayed on persian speedwell (assay: Test Example 4: herbicidal effect by soil treatment (Table 19, symbol R)). Conditions: amount of applied herbicide 320 g/ha.
Assay type: in vivo, Persian speedwell (Veronica persica)
How it was run: as §2

Row | SMILES | R: persian speedwell, herbicidal effect grade
28 | CCCC(=O)Oc1c(C)nn(C)c(=O)c1-c1c(-c2ccccc2OCC)sc2cc(C)c(C)cc12 [5-095] | 3 (Herbicidal rate of 40% or more and less than 70%)
29 | CCOc1cc(F)ccc1-c1sc2cc(C)c(C)cc2c1-c1c(O)c(C)nn(C)c1=O [5-103] | 4 (Herbicidal rate of 70% or more and less than 90%)
30 | CCOc1ccc2c(-c3c(O)c(C)nn(C)c3=O)c(-c3ccccc3OC)sc2c1Cl [7-003] | 5 (Herbicidal rate of 90% or more (almost completely withered))

These molecules were tested on green foxtail (assay: Test Example 5: herbicidal effect by foliage application, plastic box (Table 20, symbol G)). Conditions: foliage application, 320 g/ha, three weeks after application.
Assay type: in vivo, green foxtail (Setaria viridis)
How it was run: (§3)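 Post-emergence foliar test in sterilized diluvial soil. Compound applied as water-diluted emulsion at a predetermined rate to 14-day-old plants; evaluation at three weeks.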

Row | SMILES | herbicidal effect on green foxtail (G)
31 | CCCC(=O)Oc1c(C)nn(C)c(=O)c1-c1c(-c2ccccc2OCC)sc2cc(C)c(C)cc12 [5-095] | 5 (Herbicidal rate of 90% or more (almost completely withered))
32 | CCOc1cc(F)ccc1-c1sc2cc(C)c(C)cc2c1-c1c(O)c(C)nn(C)c1=O [5-103] | 5 (Herbicidal rate of 90% or more (almost completely withered))
33 | CCOc1ccc2c(-c3c(O)c(C)nn(C)c3=O)c(-c3ccccc3OC)sc2c1Cl [7-003] | 4 (Herbicidal rate of 70% or more and less than 90%)

Each molecule was assayed on barnyard grass (assay: Test Example 5: herbicidal effect by foliage application, plastic box (Table 20, symbol H)). Conditions: foliage application, 320 g/ha, three weeks after application.
Assay type: in vivo, barnyard grass (Echinochloa crus-galli)
How it was run: as §3

Row | SMILES | herbicidal effect on barnyard grass (H)
34 | CCCC(=O)Oc1c(C)nn(C)c(=O)c1-c1c(-c2ccccc2OCC)sc2cc(C)c(C)cc12 [5-095] | 4 (Herbicidal rate of 70% or more and less than 90%)
35 | CCOc1cc(F)ccc1-c1sc2cc(C)c(C)cc2c1-c1c(O)c(C)nn(C)c1=O [5-103] | 5 (Herbicidal rate of 90% or more (almost completely withered))
36 | CCOc1ccc2c(-c3c(O)c(C)nn(C)c3=O)c(-c3ccccc3OC)sc2c1Cl [7-003] | 2 (Herbicidal rate of 20% or more and less than 40%)

The molecules below were run on blackgrass (assay: Test Example 5: herbicidal effect by foliage application, plastic box (Table 20, symbol J)). Conditions: foliage application, 320 g/ha, three weeks after application.
Assay type: in vivo, blackgrass (Alopecurus myosuroides)
How it was run: as §3

Row | SMILES | herbicidal effect on blackgrass (J)
37 | CCCC(=O)Oc1c(C)nn(C)c(=O)c1-c1c(-c2ccccc2OCC)sc2cc(C)c(C)cc12 [5-095] | 4 (Herbicidal rate of 70% or more and less than 90%)
38 | CCOc1cc(F)ccc1-c1sc2cc(C)c(C)cc2c1-c1c(O)c(C)nn(C)c1=O [5-103] | 4 (Herbicidal rate of 70% or more and less than 90%)
39 | CCOc1ccc2c(-c3c(O)c(C)nn(C)c3=O)c(-c3ccccc3OC)sc2c1Cl [7-003] | 4 (Herbicidal rate of 70% or more and less than 90%)

What follows are molecules tested on Italian ryegrass (assay: Test Example 5: herbicidal effect by foliage application, plastic box (Table 20, symbol K)). Conditions: foliage application, 320 g/ha, three weeks after application.
Assay type: in vivo, Italian ryegrass (Lolium multiflorum)
How it was run: as §3

Row | SMILES | herbicidal effect on Italian ryegrass (K)
40 | CCCC(=O)Oc1c(C)nn(C)c(=O)c1-c1c(-c2ccccc2OCC)sc2cc(C)c(C)cc12 [5-095] | 4 (Herbicidal rate of 70% or more and less than 90%)
41 | CCOc1cc(F)ccc1-c1sc2cc(C)c(C)cc2c1-c1c(O)c(C)nn(C)c1=O [5-103] | 4 (Herbicidal rate of 70% or more and less than 90%)
42 | CCOc1ccc2c(-c3c(O)c(C)nn(C)c3=O)c(-c3ccccc3OC)sc2c1Cl [7-003] | 4 (Herbicidal rate of 70% or more and less than 90%)

The molecules below were run on velvetleaf (assay: Test Example 5: herbicidal effect by foliage application, plastic box (Table 20, symbol M)). Conditions: foliage application, 320 g/ha, three weeks after application.
Assay type: in vivo, velvetleaf (Abutilon theophrasti)
How it was run: as §3

Row | SMILES | herbicidal effect on velvetleaf (M)
43 | CCCC(=O)Oc1c(C)nn(C)c(=O)c1-c1c(-c2ccccc2OCC)sc2cc(C)c(C)cc12 [5-095] | 4 (Herbicidal rate of 70% or more and less than 90%)
44 | CCOc1cc(F)ccc1-c1sc2cc(C)c(C)cc2c1-c1c(O)c(C)nn(C)c1=O [5-103] | 5 (Herbicidal rate of 90% or more (almost completely withered))
45 | CCOc1ccc2c(-c3c(O)c(C)nn(C)c3=O)c(-c3ccccc3OC)sc2c1Cl [7-003] | 5 (Herbicidal rate of 90% or more (almost completely withered))
